Several values for one entry are separate records, joined by “and”; a condition that tells them apart may be missing. Identical values can stand only once.
Legend:
[1] = target: T1, Pyrococcus horikoshii biotin protein ligase (PhBPL) (Pyrococcus horikoshii, UniProt O57883); assay: Steady state fluorescence titration of PhBPL with ligand; format: binding; conditions: for blue shift of emission maximum / quenching of intrinsic protein fluorescence: saturating ligand
T1 sequence (O57883 1-235): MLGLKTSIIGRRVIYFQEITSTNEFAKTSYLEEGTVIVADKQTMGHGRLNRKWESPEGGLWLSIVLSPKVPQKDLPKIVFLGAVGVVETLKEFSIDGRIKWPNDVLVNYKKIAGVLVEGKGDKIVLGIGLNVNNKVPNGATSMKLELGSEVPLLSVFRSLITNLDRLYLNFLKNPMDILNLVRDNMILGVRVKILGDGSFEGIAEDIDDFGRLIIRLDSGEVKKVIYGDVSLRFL

E. coli BPL = conditions: bio-5′-AMP synthesis; cited from earlier work
[2] = target: T1, Pyrococcus horikoshii biotin protein ligase (PhBPL); assay: Isothermal titration calorimetry of PhBPL with biotin; format: binding
AUC = target: the molecule itself; assay: AUC
[3] = KD, 20°C, Standard Buffer pH 7.5
[4] = KD, 30°C, Standard Buffer pH 7.5
[5] = KD, 40°C, Standard Buffer pH 7.5
[6] = KD, 50°C, Standard Buffer pH 7.5

## Nc1ncnc2c1ncn2C1OC(COP(=O)(O)CP(=O)(O)OP(=O)(O)O)C(O)C1O (stereo not drawn) [AMPCPP, α,β-methyleneadenosine 5′-triphosphate]
[1]; 20°C, Standard Buffer pH 7.5
  Kd: 150 µM
[1]; 20°C, titrated into PhBPL saturated with biotin
  Kd: 140 µM
[1]; 20°C, titrated into PhBPL saturated with biotin, ΔG°= RTlnKD
  ΔG°: -5.1 ± 0.1 kcal/mol

## Nc1ncnc2c1ncn2[C@@H]1O[C@H](COP(=O)(O)OP(=O)(O)OP(=O)(O)O)[C@@H](O)[C@H]1O [ATP, adenosine 5′-triphosphate]
[1]; [3]
  Kd: 240 µM
[1]; [4]
  Kd: 290 µM
[1]; [5]
  Kd: 300 µM
[1]; [6]
  Kd: 430 µM
[1]; KD, temperature range of 20-50°C
  Kd: 200 to 400 µM
[1]
  blue shift of emission maximum: approximately 5 nm
  quenching of intrinsic protein fluorescence: 60%
[1]; titrations from 20 to 50°C
  binding enthalpy (van’t Hoff analysis): -3.5 ± 1.5 kcal/mol
E. coli BPL
  Km: ~3 mM

## O=C(O)CCCC[C@@H]1SC[C@@H]2NC(=O)N[C@@H]21 [Biotin, d-biotin]
[1]; KD, 10°C, Standard Buffer pH 7.5
  Kd: 0.12 µM
[1]; [3]
  Kd: 0.2 µM
[1]; [4]
  Kd: 0.2 µM
[1]; [5]
  Kd: 0.51 µM
[1]; [6]
  Kd: 0.39 µM
[1]; from 10°C to 50°C
  increase of equilibrium dissociation constant with temperature: approximately four fold
[1]
  blue shift of emission maximum: approximately 5 nm
  quenching of intrinsic protein fluorescence: 30%
[1]; titrations from 10 to 50°C
  enthalpy of binding (van’t Hoff analysis): -4.4 ± 0.2 kcal/mol and -4.4 kcal/mol
[2]; 20°C, direct titration
  equilibrium association constant by ITC: identical to that measured by fluorescence titrations
[2]; temperature-dependence of binding by ITC
  heat capacity change: 5±14 cal/mole·K

B1: Pyrococcus horikoshii Biotin Protein Ligase (enzyme)
chain: MLGLKTSIIGRRVIYFQEITSTNEFAKTSYLEEGTVIVADKQTMGHGRLNRKWESPEGGLWLSIVLSPKVPQKDLPKIVFLGAVGVVETLKEFSIDGRIKWPNDVLVNYKKIAGVLVEGKGDKIVLGIGLNVNNKVPNGATSMKLELGSEVPLLSVFRSLITNLDRLYLNFLKNPMDILNLVRDNMILGVRVKILGDGSFEGIAEDIDDFGRLIIRLDSGEVKKVIYGDVSLRFL
AUC
  stoichiometry N: 2
